According to patent US6413997B1, “3-(substituted phenyl)-5-(substituted heterocyclyl)-1,2,4-triazole compounds” (priority 1998, dated 2002):

Key:
Type in all cases: in vivo
[1] = system: cotton aphids (aphis gossypii); assay: Insecticidal test for cotton aphid, foliar spray on infested squash cotyledons; conditions: 50 ppm spray, graded after 3 days, versus untreated check
Method: Insecticidal Test for Cotton Aphid (Aphis gossypii)
To prepare spray solutions, 2 mg of each test compound was dissolved into 2 mL of a 90:10 acetone:ethanol solvent. This 2 mL of chemical solution was added to 38 mL of water containing 0.05% Tween 20 surfactant to produce a 50 ppm spray solution.
Squash cotyledons were infested with cotton aphid (all life stages16-20 hours prior to application of spray solution. The solution was sprayed on both sides of each infested squash cotyledon (0.5 mL×2 each side with a sweeping action using a total of 2 mL of spray solution. The plants were allowed to air dry and held for 3 days in a controlled room at 26° C. and 40% RH after which time the test was graded. Grading was by actual count using a dissecting microscope and comparison of test counts to the untreated check. Results are given in Table 1 as percent control based on population reduction versus the untreated.

[2] = system: twospotted spider mite (tetranychus uriticae); assay: Two-spotted spider mite test, ovicide method on cotton leaf discs; conditions: leaf disc dip, 6 days, hatched larvae versus untreated discs
Method: Insecticidal Test for Two-spotted Spider Mite (Tetranychus urticae)
Ten adult female two-spotted spider mites were placed on eight 2.2 cm leaf discs of cotton leaf, allowed to oviposit over 24 hours, and thereafter removed. The leaf discs were immersed in 100 ppm test solutions for 3 seconds, then allowed to dry with sixteen discs left untreated as a negative control. Discs were placed on an agar substrate and held at 24° C. and 90% relative humidity for 6 days.

[3] = system: sweetpotato whitefly (bemisia tabaci); assay: Sweetpotato whitefly test on cotton plants under laboratory conditions; conditions: 800 ppm (table footnote), spray on cotton plants with eggs, 21 days, spent pupal cases versus solution-only plants
Method: Evaluation of Tests Compounds on Sweetpotato Whitefly (Bemisia tabacia) Under Laboratory Conditions
Four mg of each test compound was dissolved by adding 5 ml of a 90:10 acetone:ethanol solvent mixture to the vial containing the sample compound. […]
Five-week-old cotton plants reared in a greenhouse were stripped of all foliage except for the two uppermost true leaves that were greater than 5 cm in diameter. These plants were then placed into a laboratory colony of whiteflies for three days for oviposition by the colony females. All whiteflies were then removed from the test plants with pressurized air. The spray solution was then applied to the test plants with a hand-held syringe fitted with hollow cone nozzle. One mL spray solution was applied to each leaf top and bottom for a total of 4 mL per plant. Four replications of each test compound utilized a total of 16 mL spray solution. Plants were air dried and then placed in a holding chamber (26° C. and 40% RH for 21 days. Compound efficacy was evaluated by counting, under a dissecting microscope, the number of spent pupal cases per leaf. A spent pupal case represents a whitefly egg that has undergone full development to achieve adult status, thus indicating lack of control.
Percent control based on reduction of spent pupal cases of a test compound compared to solution-only (no test compound sprayed plants is reported in Table 1.

Cc1cnsc1-c1nc(-c2c(F)cccc2Cl)nn1C [Compound 3]
CA: activity at 50 ppm against cotton aphids (rating of % mortality / percent control) [1]: B (81-90) | TSSM: activity at 100 ppm against twospotted spider mite (rating of % mortality / percent control) [2]: A (91-100) | WF: activity at 800 ppm against sweetpotato whitefly (rating of % mortality / percent control) [3]: G (Inactive)

Cn1nc(-c2c(F)cccc2F)nc1-c1snc(C#N)c1Br [Compound 4]
CA: activity at 50 ppm against cotton aphids (rating of % mortality / percent control) [1]: A (91-100) | TSSM: activity at 100 ppm against twospotted spider mite (rating of % mortality / percent control) [2]: G (Inactive) | WF: activity at 800 ppm against sweetpotato whitefly (rating of % mortality / percent control) [3]: G (Inactive)

Cn1nc(-c2c(F)cccc2F)nc1-c1snc(-c2ccccc2)c1Br [Compound 7]
CA: activity at 50 ppm against cotton aphids (rating of % mortality / percent control) [1]: B (81-90) | TSSM: activity at 100 ppm against twospotted spider mite (rating of % mortality / percent control) [2]: G (Inactive) | WF: activity at 800 ppm against sweetpotato whitefly (rating of % mortality / percent control) [3]: E (51-60)

Cn1nc(-c2c(F)cccc2Cl)nc1-c1snc(-c2ccccc2)c1Br [Compound 8]
CA: activity at 50 ppm against cotton aphids (rating of % mortality / percent control) [1]: B (81-90) | TSSM: activity at 100 ppm against twospotted spider mite (rating of % mortality / percent control) [2]: C (71-80) | WF: activity at 800 ppm against sweetpotato whitefly (rating of % mortality / percent control) [3]: G (Inactive)

Cn1nc(-c2c(F)cccc2F)nc1-c1cc(-c2ccc(Cl)cc2)ns1 [Compound 9]
CA: activity at 50 ppm against cotton aphids (rating of % mortality / percent control) [1]: E (51-60) | WF: activity at 800 ppm against sweetpotato whitefly (rating of % mortality / percent control) [3]: G (Inactive)

Cn1nc(-c2c(F)cccc2F)nc1-c1snc(-c2ccc(Cl)cc2)c1Br [Compound 11]
CA: activity at 50 ppm against cotton aphids (rating of % mortality / percent control) [1]: A (91-100) | TSSM: activity at 100 ppm against twospotted spider mite (rating of % mortality / percent control) [2]: A (91-100) | WF: activity at 800 ppm against sweetpotato whitefly (rating of % mortality / percent control) [3]: G (Inactive)

Cn1nc(-c2c(F)cccc2Cl)nc1-c1snc(-c2ccc(Cl)cc2)c1Br [Compound 12]
CA: activity at 50 ppm against cotton aphids (rating of % mortality / percent control) [1]: A (91-100) | TSSM: activity at 100 ppm against twospotted spider mite (rating of % mortality / percent control) [2]: A (91-100) | WF: activity at 800 ppm against sweetpotato whitefly (rating of % mortality / percent control) [3]: G (Inactive)

Cn1nc(-c2c(F)cccc2F)nc1-c1snc(-c2ccc([N+](=O)[O-])cc2)c1Br [Compound 15]
TSSM: activity at 100 ppm against twospotted spider mite (rating of % mortality / percent control) [2]: G (Inactive) | WF: activity at 800 ppm against sweetpotato whitefly (rating of % mortality / percent control) [3]: G (Inactive)

Cn1nc(-c2c(F)cccc2F)nc1-c1snc(-c2cccc(C(F)(F)F)c2)c1Br [Compound 16]
CA: activity at 50 ppm against cotton aphids (rating of % mortality / percent control) [1]: B (81-90) | TSSM: activity at 100 ppm against twospotted spider mite (rating of % mortality / percent control) [2]: G (Inactive)

Cc1cc(-c2nc(-c3c(F)cccc3F)nn2C)on1 [Compound 28]
TSSM: activity at 100 ppm against twospotted spider mite (rating of % mortality / percent control) [2]: G (Inactive) | WF: activity at 800 ppm against sweetpotato whitefly (rating of % mortality / percent control) [3]: B (81-90)

Cn1nc(-c2c(F)cccc2F)nc1-c1cc(C(C)(C)C)no1 [Compound 30]
CA: activity at 50 ppm against cotton aphids (rating of % mortality / percent control) [1]: D (61-70) | TSSM: activity at 100 ppm against twospotted spider mite (rating of % mortality / percent control) [2]: G (Inactive)

Cc1ncsc1-c1nc(-c2c(F)cccc2F)nn1C [Compound 37]
CA: activity at 50 ppm against cotton aphids (rating of % mortality / percent control) [1]: B (81-90) | TSSM: activity at 100 ppm against twospotted spider mite (rating of % mortality / percent control) [2]: A (91-100)

Cn1nc(-c2c(F)cccc2F)nc1-c1scnc1Cl [Compound 38]
CA: activity at 50 ppm against cotton aphids (rating of % mortality / percent control) [1]: A (91-100) | TSSM: activity at 100 ppm against twospotted spider mite (rating of % mortality / percent control) [2]: A (91-100) | WF: activity at 800 ppm against sweetpotato whitefly (rating of % mortality / percent control) [3]: G (Inactive)

Cc1nc(Cl)sc1-c1nc(-c2c(F)cccc2F)nn1C [Compound 39]
CA: activity at 50 ppm against cotton aphids (rating of % mortality / percent control) [1]: A (91-100) | TSSM: activity at 100 ppm against twospotted spider mite (rating of % mortality / percent control) [2]: A (91-100) | WF: activity at 800 ppm against sweetpotato whitefly (rating of % mortality / percent control) [3]: G (Inactive)

Cc1nc(Cl)sc1-c1nc(-c2c(F)cccc2Cl)nn1C [Compound 40]
CA: activity at 50 ppm against cotton aphids (rating of % mortality / percent control) [1]: A (91-100) | TSSM: activity at 100 ppm against twospotted spider mite (rating of % mortality / percent control) [2]: A (91-100)

Cc1nc(Br)sc1-c1nc(-c2c(F)cccc2F)nn1C [Compound 41]
CA: activity at 50 ppm against cotton aphids (rating of % mortality / percent control) [1]: A (91-100) | TSSM: activity at 100 ppm against twospotted spider mite (rating of % mortality / percent control) [2]: A (91-100) | WF: activity at 800 ppm against sweetpotato whitefly (rating of % mortality / percent control) [3]: G (Inactive)

Cn1nc(-c2c(F)cccc2F)nc1-c1sc(Cl)nc1Cl [Compound 42]
CA: activity at 50 ppm against cotton aphids (rating of % mortality / percent control) [1]: B (81-90) | TSSM: activity at 100 ppm against twospotted spider mite (rating of % mortality / percent control) [2]: A (91-100) | WF: activity at 800 ppm against sweetpotato whitefly (rating of % mortality / percent control) [3]: G (Inactive)

Cc1nc(-c2ccc(C(F)(F)F)cc2)sc1-c1nc(-c2c(F)cccc2F)nn1C [Compound 47]
CA: activity at 50 ppm against cotton aphids (rating of % mortality / percent control) [1]: D (61-70) | TSSM: activity at 100 ppm against twospotted spider mite (rating of % mortality / percent control) [2]: A (91-100) | WF: activity at 800 ppm against sweetpotato whitefly (rating of % mortality / percent control) [3]: G (Inactive)

Cc1nc(-c2nc(-c3c(F)cccc3F)nn2C)cs1 [Compound 48]
CA: activity at 50 ppm against cotton aphids (rating of % mortality / percent control) [1]: D (61-70) | TSSM: activity at 100 ppm against twospotted spider mite (rating of % mortality / percent control) [2]: G (Inactive)

Cc1nc(-c2nc(-c3c(F)cccc3Cl)nn2C)cs1 [Compound 49]
TSSM: activity at 100 ppm against twospotted spider mite (rating of % mortality / percent control) [2]: C (71-80)

Cn1nc(-c2c(F)cccc2F)nc1-c1csc(-c2cccs2)n1 [Compound 50]
CA: activity at 50 ppm against cotton aphids (rating of % mortality / percent control) [1]: A (91-100) | TSSM: activity at 100 ppm against twospotted spider mite (rating of % mortality / percent control) [2]: G (Inactive) | WF: activity at 800 ppm against sweetpotato whitefly (rating of % mortality / percent control) [3]: G (Inactive)

Cc1ncoc1-c1nc(-c2c(F)cccc2F)nn1C [Compound 55, 3-(2,6-Difluorophenyl)-5-(4-methyloxazol-5-yl)-1-methyl[1,2,4]triazole]
mortality at 50 ppm ([1]; Aphis gossypii, foliar, 72 h, read-out: CA: activity at 50 ppm against cotton aphids (rating of % mortality / percent control)): 0 to 51% | mortality at 100 ppm ([2]; foliar, 144 h, read-out: TSSM: activity at 100 ppm against twospotted spider mite (rating of % mortality / percent control)): 0 to 51%

Cn1nc(-c2c(F)cccc2F)nc1-c1snnc1-c1ccccc1 [Compound 58]
CA: activity at 50 ppm against cotton aphids (rating of % mortality / percent control) [1]: A (91-100) | TSSM: activity at 100 ppm against twospotted spider mite (rating of % mortality / percent control) [2]: C (71-80) | WF: activity at 800 ppm against sweetpotato whitefly (rating of % mortality / percent control) [3]: G (Inactive)

CCn1nc(C)cc1-c1nc(-c2c(F)cccc2F)nn1C [Compound 60]
CA: activity at 50 ppm against cotton aphids (rating of % mortality / percent control) [1]: B (81-90) | TSSM: activity at 100 ppm against twospotted spider mite (rating of % mortality / percent control) [2]: G (Inactive)

Cc1cc(-c2nc(-c3c(F)cccc3F)nn2C)n(C)n1 [Compound 62]
CA: activity at 50 ppm against cotton aphids (rating of % mortality / percent control) [1]: A (91-100) | TSSM: activity at 100 ppm against twospotted spider mite (rating of % mortality / percent control) [2]: G (Inactive) | WF: activity at 800 ppm against sweetpotato whitefly (rating of % mortality / percent control) [3]: E (51-60)

Cc1cc(-c2nc(-c3c(F)cccc3Cl)nn2C)n(C)n1 [Compound 63]
CA: activity at 50 ppm against cotton aphids (rating of % mortality / percent control) [1]: A (91-100) | TSSM: activity at 100 ppm against twospotted spider mite (rating of % mortality / percent control) [2]: G (Inactive)

Cn1nc(-c2c(F)cccc2F)nc1-c1cc(C(C)(C)C)nn1Cc1ccccc1 [Compound 70]
CA: activity at 50 ppm against cotton aphids (rating of % mortality / percent control) [1]: B (81-90) | TSSM: activity at 100 ppm against twospotted spider mite (rating of % mortality / percent control) [2]: G (Inactive) | WF: activity at 800 ppm against sweetpotato whitefly (rating of % mortality / percent control) [3]: E (51-60)

CCn1nc(-c2nc(-c3c(F)cccc3Cl)nn2C)cc1C [Compound 74]
CA: activity at 50 ppm against cotton aphids (rating of % mortality / percent control) [1]: A (91-100)

Cn1cc(Cl)c(-c2nc(-c3c(F)cccc3Cl)nn2C)n1 [Compound 75]
TSSM: activity at 100 ppm against twospotted spider mite (rating of % mortality / percent control) [2]: G (Inactive) | WF: activity at 800 ppm against sweetpotato whitefly (rating of % mortality / percent control) [3]: B (81-90)

Cc1nn(C)c(Cl)c1-c1nc(-c2c(F)cccc2Cl)nn1C [Compound 76]
CA: activity at 50 ppm against cotton aphids (rating of % mortality / percent control) [1]: B (81-90) | TSSM: activity at 100 ppm against twospotted spider mite (rating of % mortality / percent control) [2]: A (91-100)

Cn1nc(-c2c(F)cccc2Cl)nc1-c1c(C(F)(F)F)nn(C)c1Cl [Compound 77]
TSSM: activity at 100 ppm against twospotted spider mite (rating of % mortality / percent control) [2]: A (91-100)

CCCc1c(-c2nc(-c3c(F)cccc3F)nn2C)cnn1-c1ccc(Cl)cc1 [Compound 80]
TSSM: activity at 100 ppm against twospotted spider mite (rating of % mortality / percent control) [2]: G (Inactive)

Cc1nc(-c2ccc(Cl)cc2)sc1-c1nc(-c2c(F)cccc2F)nn1C [Compound 90]
TSSM: activity at 100 ppm against twospotted spider mite (rating of % mortality / percent control) [2]: A (91-100)

Cc1nc(C(F)(F)F)sc1-c1nc(-c2c(F)cccc2F)nn1C [Compound 91]
CA: activity at 50 ppm against cotton aphids (rating of % mortality / percent control) [1]: C (71-80)
